Results as given in US20110091574A1, “TREATMENT OF ADENOCARCINOMA EXPRESSING LKB1 WITH MTOR INHIBITOR IN COMBINATION WITH COX2 INHIBITOR” (Catholic Healthcare West, priority 2008, published 2011).

Key:
[1] = tested on: H23-LKB1 cells; experiment: Caspase 3/7 activity (Caspase-Glo 3/7); format: cell-based, human; conditions: H23 re-expressing LKB1; 20 mM 2-DG, 24 hours
Description: (§1) FIG. 4 (in panels A through F) illustrates in graphs and immunoblots that 2-DG induces apoptosis in LKB1 null NSCLC cells. […] Bars represent standard error and the studies were repeated twice. FIG. 4B is an immunoblot of cleaved PARP. H23 and H2009 cells were treated for 24 hours with 20 mM of 2-DG. […] GAPDH was used as a loading control. FIG. 4C is an immunoblot of LKB1 and KDLKB1 in H23 cells after retroviral infection and puromycin selection. GAPDH was used as a loading control. FIG. 4D is an immunoblot that illustrates 2-DG activation of LKB1 in H23-LKB1, but not H23-KDLKB1 cells. The blot was stripped and probed for AMPK as a loading control. The blot represents two independent studies. FIG. 4E is a graph that illustrates that LKB1, but not KDLKB1 prevents activation of caspase 3 and 7 in H23 cells. H23-LKB1 and H23-KDLKB1 cells were treated for 24 hours with 20 mM 2-DG before analysis as described hereinafter. Bars represent standard error, and the study was repeated twice. FIG. 4F is an immunoblot of cleaved PARP in H23-LKB1 and H23-KDLKB1 after treatment with 20 mM of 2-DG for 24 hours. […]
(§2) Cell lines were plated at a density of 5000 cells per well in 96 well plates. […] Activity of caspases 3 and 7 were determined using a Caspase-Glo® 3/7 kit (Promega) according to manufacturer's instructions and scanned using a Beckman Coulter DTX 880 plate reader. […]

[2] = tested on: mTOR in LKB1 null cells; experiment: mTOR activation in cells treated with 2-DG; format: cell-based; conditions: LKB1 null cells treated with 2-DG
[3] = tested on: H23 cells; experiment: Caspase 3/7 activity (Caspase-Glo 3/7); format: cell-based, human; conditions: H23 (LKB1 null); increasing doses of 2-DG, 24 hours
Description: as §1, §2

[4] = tested on: H23 cells; experiment: Immunoblot of cleaved PARP; format: cell-based, human; conditions: 20 mM 2-DG, 24 hours
Description: as §1, with “hours. Blot is representative of two independent studies. GAPDH was used as a loading control.” for “hours.”
(§3) Cells were incubated on ice for 30 minutes with a lysis buffer containing 10 mM Tris-HCL, 150 mM NaCl and 1% IGEPAL (Sigma). […] Protein concentration was determined using the Bio-Rad DC protein kit. […]

[5] = tested on: AMPK phosphorylation in H2009, H441, H23, H2122 NSCLC cell lines; experiment: Immunoblot of AMPK Thr172 phosphorylation after 2-DG; format: cell-based, human; conditions: 20 mM 2-DG, 1 hour; LKB1 positive H2009, H441 vs LKB1 negative H23, H2122
Description: (§4) FIG. 3 (in three panels, A, B and C) illustrates the effect of 2-deoxyglucose (2-DG) in LKB1 null and LKB1 expressing NSCLC cells. FIG. 3A is an immunoblot of LKB1 in H23, H2122, H2009 and H441 NSCLC cell lines. GAPDH was used as a loading control. FIG. 3B illustrates an immunoblot showing the induction of AMPK phosphorylation by 2-DG. LKB1 positive (H2009, H441) and LKB1 negative (H23, H2122) cell lines were treated with 20 mM of 2-DG for 1 hour. Protein lysates were immunoblotted with an antibody specific to phosphorylated Thr172 AMPK. It is noted that 2-DG induces phosphorylation at Thr172 only in LKB1 expressing cells. Both AMPK and GAPDH were used as loading controls. The blot is representative of two independent experiments. C-LKB1 null NSCLC cell are more sensitive to 2-DG. […] NSCLC cell lines were treated for 48 hours with indicated concentrations of 2-DG. Bars represent standard error.
To investigate the role of LKB1 in the effectiveness of 2-DG treatment, four NSCLC cell lines (H23, H2122, H441, H2009) were screened by immunoblot for LKB1 expression (FIG. 3A).
as §3

[6] = tested on: LKB1 null NSCLC cells (H23, H2122); experiment: Cell viability after 2-DG (CellTiter Blue); format: cell-based, human; conditions: 48 hours
Description: as §4
(§5) Because LKB1-AMPK signaling can affect cell growth or cell number, the number of viable LKB1 null and LKB1 positive cells were compared after treatment with 2-DG for a range of concentrations, over time.
(§6) LKB1 negative (H23, H2122) and positive (H2009, H441) NSCLC cell lines were treated with decreasing doses of 2-deoxyglucose (2-DG) for 72 hours. Cell viability, markers of apoptosis (e.g. PARP, Caspases), and gene expression profiles were evaluated from treated versus untreated samples.
(§7) Cell lines were plated at a density of 2500 cells per well in 96 well plates. After attachment, 2-DG was diluted in media at indicated concentrations and added to wells. Treatment was carried out for 48 hours in standard cell culture conditions, before cell viability was assessed using the CellTiter® Blue kit (Promega) according to manufacturer's instructions and read on a Beckman Coulter DTX 880. The percentage of viable cells was determined by normalizing treated samples to vehicle (PBS).

[7] = tested on: LKB1 positive NSCLC cells (H2009, H441); experiment: Cell viability after 2-DG (CellTiter Blue); format: cell-based, human; conditions: 20 mM 2-DG, 48 hours
Description: as §4, §5, §6, §7

[8] = tested on: H23-LKB1 cells; experiment: Immunoblot of cleaved PARP; format: cell-based, human; conditions: H23 re-expressing LKB1; 20 mM 2-DG, 24 hours
Description: as §1, with “hours. Blot is representative of two independent studies. GAPDH was used as a loading control.” for “hours.”
as §3

[9] = tested on: LKB1 positive lines (H2009); experiment: Microarray gene expression profiling of 2-DG-treated cells; format: cell-based, human
Description: (§8) To test this hypothesis, apoptosis-related transcripts of H23 (LKB1 null) and H2009 (LKB1 positive) cells were compared by treatment with either low (2.5 mM) or high dose (20 mM) 2-DG or vehicle (PBS) for 6 hours followed by microarray-based assessment of gene expression. […] LKB1 negative (H23, H2122) and positive (H2009, H441) NSCLC cell lines were treated with decreasing doses of 2-deoxyglucose (2-DG) for 72 hours. Cell viability, markers of apoptosis (e.g. PARP, Caspases), and gene expression profiles were evaluated from treated versus untreated samples. Total RNA was extracted from cells using TRIzol (Invitrogen) followed by RNeasy Mini Kit purification (Qiagen) according to manufacturers specifications. Spectrophotometric analysis was performed on a NanoDrop ND-1000 (Thermo Scientific) and RNA quality was assessed on a BioAnalyzer 2100 (Agilent) using strict RNA integrity QC cutoffs. 500 ng of RNA was labeled and hybridized (in duplicate) to Agilent 4×44K Whole Human Genome One-Color Oligo Microarrays according to manufacturer specifications. Slides were scanned using the Agilent Microarray Scanner (model […]) and processed with Agilent's Feature Extraction software (v. 9.5.1). Comparative and statistical analyses for gene expression profiles, were carried out using GeneSpring 7.3. Apoptosis-related genes of interest were identified by key word search (“apoptosis”) followed by unsupervised hierarchical clustering. Significance values were determined by comparing expression of all LKB1+ samples (grouped) to all LKB1- samples (grouped) for each gene using the Student's t-test and a p<0.05 cutoff after multiple testing correction using the false discovery rate (FDR) method.

[10] = tested on: LKB1 negative cell lines (H23); experiment: as above; format: cell-based, human
Description: as §8

[11] = tested on: H23-KDLKB1 cells; experiment: Immunoblot of AMPK phosphorylation after 2-DG; format: cell-based, human; conditions: H23-KDLKB1 cells treated with 2-DG
Description: as §1, with “hours. Blot is representative of two independent studies. GAPDH was used as a loading control.” for “hours.”
as §3

[12] = tested on: H23-LKB1 cells; experiment: Immunoblot of AMPK phosphorylation after 2-DG; format: cell-based, human; conditions: H23-LKB1 cells treated with 2-DG
Description: as §1, with “hours. Blot is representative of two independent studies. GAPDH was used as a loading control.” for “hours.”
as §3

[13] = tested on: COX-2 and COX-1 enzymes; conditions: cited from earlier work; for inhibition of COX-2 relative to COX-1: in vitro
[14] = human, single oral dose of 200 mg; cited from earlier work
[15] = cited from earlier work

O=CC[C@@H](O)[C@H](O)[C@H](O)CO [2-DG, 2-deoxyglucose]
2-DG induced activation of caspase 3 and 7 [1]: prevented 2-DG induced activation of caspase 3 and 7
mTOR activation [2]: increased mTOR activation
activation of caspases 3 and 7 [3]: dose dependent activation of caspases 3 and 7
cleaved PARP (marker of apoptosis) [4]: present
activation of AMPK (phosphorylation at Thr172) [5]: induced LKB1 dependent activation of AMPK
cell viability ([6]; LKB1 negative cells, 20 mM 2-DG): significant decrease in cell viability
cell viability compared to LKB1 positive cells ([6]; LKB1 null cells, all doses, lowest 2.5 mM, p=5.73×10^−13): significant decrease in cell viability for all doses tested
cell viability [7]: significant decrease in cell viability
cleavage of PARP [8]: prevented cleavage of PARP
expression of pro-apoptotic markers [9]: no changes in expression
expression of BCL-2 and BCL-2 interacting proteins ([10]; H23 (LKB1 null), 2.5 mM or 20 mM 2-DG, 6 hours, microarray): dose dependent changes
expression of pro-apoptotic markers ([10]; LKB1 negative cell lines, 2-DG-treated): increase in the expression of pro-apoptotic markers
phosphorylation of AMPK [11]: does not
phosphorylation of AMPK [12]: capable of phosphorylating AMPK

CC(=O)Oc1ccccc1C(=O)O [aspirin]
inhibition of COX-2 relative to COX-1 [13]: about equipotent

Cc1ccc(-c2cc(C(F)(F)F)nn2-c2ccc(S(N)(=O)=O)cc2)cc1 [celecoxib]
Cmax [14]: 709 ng/mL
cardiovascular side effects ([15]; long-term use at 400 mg once daily, or 200 mg or 400 mg twice daily): severe cardiovascular side effects

Cc1ccc(-c2ncc(Cl)cc2-c2ccc(S(C)(=O)=O)cc2)cn1 [etoricoxib]
relative degree of selectivity for COX-2 over COX-1 (rank order) [13]: lumiracoxib=etoricoxib>valdecoxib=rofecoxib>>celecoxib

CC(C)Cc1ccc(C(C)C(=O)O)cc1 (stereo not shown) [ibuprofen]
inhibition of COX-2 relative to COX-1 [13]: sevenfold

Cc1ccc(Nc2c(F)cccc2Cl)c(CC(=O)O)c1 [lumiracoxib]
relative degree of selectivity for COX-2 over COX-1 (rank order) [13]: lumiracoxib=etoricoxib>valdecoxib=rofecoxib>>celecoxib

CS(=O)(=O)c1ccc(C2=C(c3ccccc3)C(=O)OC2)cc1 [rofecoxib]
increased risk of cardiovascular toxicities ([15]; trial to prevent adenomas): two-fold
potency at inhibiting COX-2 relative to COX-1 [13]: about 300 times
